Patent US6579899B1, “Composition for treatment of stress” (Massachusetts Institute of Technology, priority 1998, dated 2003)
Counter-ions that a name gives are not always drawn.

How the values were obtained:
[1] = test system: obese, stressed patients; assay: CES-D test of current levels of emotional distress in patients; type: in vivo, human
From the text: (§1) A subgroup of obese individuals is identified, which individuals describe themselves as being unable to control their eating and who attempt to continue on a weight-reducing diet when experiencing emotional distress. […]
(§2) Objective measurements of emotional distress are made in some patients using the CES-D (Center for […] Depression Form) test, which measures current levels of emotional distress (Radloff, et al., The CES-D Scale: A Self Report Depression Scale for Research in the General Population Applied Psychological Measurement 1: 385-401, 1977); and the POMS (Profile of Mood States test, that assesses tension, depression, anger and confusion (McNair, et al., Profile of Mood States Manual;San Diego: Educational and Industrial Testing Service, 1971); both of these references are hereby incorporated by reference in their entirety. These tests are also given monthly during the treatment period. At the same time, patients also complete questionnaires that ask the patients to rate their appetite and hunger, and also to rate their tendency to eat in response to a variety of emotional and stressful triggers. The patients are also weighed monthly.

[2] = test system: obese, stressed patients; assay: questionnaire rating appetite and hunger; type: in vivo, human; design: Appetite and Cravings: scale not given here
From the text: as §1, §2

[3] = test system: obese, stressed patients; assay: questionnaire rating tendency to eat in response to emotional and stressful triggers; type: in vivo, human; design: Emotional Triggers: scale not given here
From the text: as §1, §2

[4] = test system: Sprague-Dawley rats; assay: stress related eating (clamp tightened on the tail) in rats; type: in vivo, rat; conditions: for Stress Eating, relative amount with 0 mg/kg as 100% / Stressed Rats, average amount of food consumed per rat / Stress Eating / Control Rats, average amount of food consumed per rat: 8 hours; for Stressed Rats, average amount of food consumed per rat: clamp tightened on the tail; for Stress Eating: stressed minus control rats; for Control Rats, average amount of food consumed per rat: untightened clamp
Procedure: The effect of the hydrochloride salt of 6-chloro-2-(1-piperazinyl)pyrazine (MK-212, which is obtained from Merck & Co., Inc. Whitehouse Station, N.J.), on stress related eating in animals is determined through the observation of the effect of experimental compounds on stress-related eating in adult Sprague-Dawley rats. These rats are widely used as a recognized animal model useful in predicting the effect of serotoninergic drugs in humans.
In these experiments, a group of 5 adult female and 5 adult male Sprague-Dawley rats weighing between 200 and 250 grams each are used as control animals. An untightened clamp is placed on the tail of these animals. The untightened clamp provides the unstressed condition. Each animal is placed in an individual cage and allowed free access to food. The amount of food consumed is determined at 2, 4 and 8 hours after the initiation of the trial. A similar group of rats has a clamp tightened on the tail. The amount of food consumed by this stressed group of rats is shown in the 0 mg/kg column. […] similar groups of stressed rats are injected with 1, 2, 5, or 10 mg/kg body weight of MK-212 one hour before initiation of the experiment.
The relative amounts of stress eating with the amount at 0 mg/kg MK-212 as 100% is also shown in the Stress Eating row. The preferred daily dose of MK-212 is about 1 mg/kg body weight to about 10 mg/kg body weight.

[5] = patient nine, 100 mg/day in divided doses, Month 1, baseline 9
[6] = patient nine, 100 mg/day in divided doses, Month 2, baseline 9
[7] = patient nine, 100 mg/day in divided doses, Month 3, baseline 9
[8] = patient nine, 100 mg/day in divided doses, Month 4, baseline 9
[9] = 1 mg/kg injected one hour before
[10] = 2 mg/kg injected one hour before
[11] = 5 mg/kg injected one hour before
[12] = 10 mg/kg injected one hour before

Molecule: COCCCC/C(=N\OCCN)c1ccc(C(F)(F)F)cc1 [fluvoxamine maleate]
- Mood Scores CES-D ([1]; patient three, 50 rising to 150 mg/day, Month 1, baseline 23): 26
- Mood Scores CES-D ([1]; patient three, 50 rising to 150 mg/day, Month 2, baseline 23): 16
- Mood Scores CES-D ([1]; patient three, 50 rising to 150 mg/day, Month 3, baseline 23): 15
- Mood Scores CES-D ([1]; patient three, 50 rising to 150 mg/day, Month 4, baseline 23): 17
- Appetite and Cravings ([2]; patient three, 50 rising to 150 mg/day, Month 1, baseline 18): 16
- Appetite and Cravings ([2]; patient three, 50 rising to 150 mg/day, Month 2, baseline 18): 11
- Appetite and Cravings ([2]; patient three, 50 rising to 150 mg/day, Month 3, baseline 18): 12
- Appetite and Cravings ([2]; patient three, 50 rising to 150 mg/day, Month 4, baseline 18): 14
- Emotional Triggers ([3]; patient three, 50 rising to 150 mg/day, Month 1, baseline 34): 27
- Emotional Triggers ([3]; patient three, 50 rising to 150 mg/day, Month 2, baseline 34): 30
- Emotional Triggers ([3]; patient three, 50 rising to 150 mg/day, Month 3, baseline 34): 20
- Emotional Triggers ([3]; patient three, 50 rising to 150 mg/day, Month 4, baseline 34): 24

Molecule: O=c1n(CCCN2CCN(c3cccc(Cl)c3)CC2)nc2ccccn12 [trazodone hydrochloride]
- Mood Scores CES-D [1, 5]: 16
- Mood Scores CES-D [1, 6]: 16
- Mood Scores CES-D [1, 7]: 10
- Mood Scores CES-D [1, 8]: 1
- Appetite and Cravings [2, 5]: 5
- Appetite and Cravings [2, 6]: 5
- Appetite and Cravings [2, 7]: 3
- Appetite and Cravings [2, 8]: 5
- Emotional Triggers ([3]; patient nine, 100 mg/day in divided doses, Month 1, baseline 12): 12
- Emotional Triggers ([3]; patient nine, 100 mg/day in divided doses, Month 2, baseline 12): 9
- Emotional Triggers ([3]; patient nine, 100 mg/day in divided doses, Month 3, baseline 12): 5
- Emotional Triggers ([3]; patient nine, 100 mg/day in divided doses, Month 4, baseline 12): 3

Molecule: COc1ccc(C(CN(C)C)C2(O)CCCCC2)cc1 (centres unmarked) [venlafaxine hydrochloride]
- Mood Scores CES-D ([1]; patient ten, 75 rising to 150 mg/day, Month 1, baseline 8): 4
- Mood Scores CES-D ([1]; patient ten, 75 rising to 150 mg/day, Month 2, baseline 8): 6
- Mood Scores CES-D ([1]; patient ten, 75 rising to 150 mg/day, Month 3, baseline 8): 2
- Mood Scores CES-D ([1]; patient ten, 75 rising to 150 mg/day, Month 4, baseline 8): 2
- Appetite and Cravings ([2]; patient ten, 75 rising to 150 mg/day, Month 1, baseline 10): 6
- Appetite and Cravings ([2]; patient ten, 75 rising to 150 mg/day, Month 2, baseline 10): 7
- Appetite and Cravings ([2]; patient ten, 75 rising to 150 mg/day, Month 3, baseline 10): 3
- Appetite and Cravings ([2]; patient ten, 75 rising to 150 mg/day, Month 4, baseline 10): 1
- Emotional Triggers ([3]; patient ten, 75 rising to 150 mg/day, Month 1, baseline 14): 9
- Emotional Triggers ([3]; patient ten, 75 rising to 150 mg/day, Month 2, baseline 14): 4
- Emotional Triggers ([3]; patient ten, 75 rising to 150 mg/day, Month 3, baseline 14): 6
- Emotional Triggers ([3]; patient ten, 75 rising to 150 mg/day, Month 4, baseline 14): 2

Molecule: (S)-2-(Chloro-5-fluoro-indol-1-yl)-1-methylethylamine [Ro 60-0332/ORG 35035]
- Stress Eating, relative amount with 0 mg/kg as 100% ([4]; 1 mg/kg): (103%)
- Stress Eating, relative amount with 0 mg/kg as 100% ([4]; 2 mg/kg): (28%)
- Stress Eating, relative amount with 0 mg/kg as 100% ([4]; 5 mg/kg): (17%)
- Stress Eating, relative amount with 0 mg/kg as 100% ([4]; 10 mg/kg): (13%)
- Stressed Rats, average amount of food consumed per rat [4, 9]: 4.87 g
- Stressed Rats, average amount of food consumed per rat [4, 10]: 2.19 g
- Stressed Rats, average amount of food consumed per rat [4, 11]: 1.83 g
- Stressed Rats, average amount of food consumed per rat [4, 12]: 1.74 g
- Stress Eating ([4]; 1 mg/kg): 3.58 g
- Stress Eating ([4]; 2 mg/kg): 0.99 g
- Stress Eating ([4]; 5 mg/kg): 0.60 g
- Stress Eating ([4]; 10 mg/kg): 0.46 g
- stress-related eating ([4]; stressed rats, 1-10 mg/kg): reduces stress-related eating
- Control Rats, average amount of food consumed per rat [4, 9]: 1.29 g
- Control Rats, average amount of food consumed per rat [4, 10]: 1.20 g
- Control Rats, average amount of food consumed per rat [4, 11]: 1.21 g
- Control Rats, average amount of food consumed per rat [4, 12]: 1.28 g
